We go through 11 compounds from patent publication US4191738A, “Immunoassay for N-desmethyldiazepam” (Hoffmann-La Roche Inc., priority 1978, dated 1980).

Data set [1] concerns antiserum to N-desmethyldiazepam. Kind of data set: RIA cross-reactivity with the antiserum to N-desmethyldiazepam. The format is binding, New Zealand white rabbit. The note with it: for % Cross-reaction: determined at 50% inhibition of antibody-bound ^3 H-N-desmethyldiazepam; for interference (cross-reactivity in words): RIA antiserum to N-desmethyldiazepam. Here is the method: (§1) Two New Zealand white rabbits were immunized by intradermal injection of the immunogen as an emulsion in Freund's complete adjuvant (1 mg/ml) using the protocol of Dixon et al. supra. The animals were then boosted at monthly intervals by intravenous and subcutaneous injection of 100 μg of the immunogen as a solution in isotonic saline via both routes. Serum was harvested at 10 to 14 days following each booster and stored at -20° C.
The assay was carried out in 12×75 mm glass tubes using 0.01 M Tris buffer (pH 7.5) containing 0.9% NaCl and 0.1% sodium azide. A calibration curve was generated by addition of ^3 H-N-desmethyldiazepam (15,000 cpm) in 0.5 ml of buffer to tubes containing 0.5 to 20 ng of unlabelled N-desmethyldiazepam in 50 μl of control plasma or blood followed by 0.4 ml of suitably diluted antiserum. Appropriate controls were included to determine nonspecific (i.e. absence of antiserum) and specific binding of the tracer. Following incubation at room temperature for 0.5 to 1 hr, an equal volume (1 ml) of saturated ammonium sulfate (adjusted to pH 7.5 with 5 N NaOH) was added to precipitate antibody-bound radioligand. The mixture was vortexed and after standing for 10 min at 4° C. in a refrigerated centrifuge, the tubes were centrifuged at 2500×g for 20 min. The supernate was removed by aspiration and the precipitate, containing the antibody-bound radioligand, dissolved in 0.4 ml of water. (When whole blood samples were assayed, the precipitate was washed twice with 1 ml of 50% saturated ammonium sulfate prior to its dissolution in water. This procedure removed virtually all of the heme proteins which might otherwise interfere with the subsequent liquid scintillation counting procedure.) After the addition of 3 ml of Aquasol (New England Nuclear, Boston, Mass. 02118) each tube was vortexed immediately to give a clear solution, capped with a Caplug (size 5X, Protective Closures Co., Inc., Buffalo, N.Y. 14207) and the tube counted directly as described by Dixon and Cohen, Clin. Chem, 22, 1746 (1976) in a modified liquid scintillation counter (Packard Tri-Carb, Model 3255, Packard Instrument Co., Ill. 60515). The counting efficiency for tritium under these conditions was 32%.
All samples were assayed in duplicate and the data calculated as outlined by Robard, Clin. Chem. 20, 1255 (1970) using a digital computer for iterative weighted linear regression analysis of logit B/Bo versus log dose where B and Bo are the amounts of antibody-bound radioligand in the presence and absence of unlabelled drug, respectively. Both B and Bo were corrected for nonspecific binding.
The specificity of the RIA was established by determination of the extent of cross-reactivity of a number of potential competitors with the antiserum and by comparison of the RIA method with the EC-GC procedure of de Silva et al., Anal. Chem. 48, 10 (1976).
*Determined at 50% inhibition of antibodybound ^3

In data set [2] the test system is antibodies elicited by N-desmethyldiazepam-bovine gamma globulin conjugate. The settings on record: 3'-carboxypropyl linked conjugate, U.S. Pat. No. 4,046,636 Example 8; cited from earlier work.
The subject of data set [3] is antiserum to N-desmethyldiazepam. As to the kind of experiment: RIA calibration, binding of ^3 H-N-desmethyldiazepam to antiserum, sensitivity and precision. More on the design: species or system New Zealand white rabbit. Here is the method: as §1
The assay was carried out in 12×75 mm glass tubes using 0.01 M Tris buffer (pH 7.5) containing 0.9% NaCl and 0.1% sodium azide. […] (When whole blood samples were assayed, the precipitate was washed twice with 1 ml of 50% saturated ammonium sulfate prior to its dissolution in water. This procedure removed virtually all of the heme proteins which might otherwise interfere with the subsequent liquid scintillation counting procedure.) After the addition of 3 ml of Aquasol (New England Nuclear, Boston, Mass. 02118) each tube was vortexed immediately to give a clear solution, capped with a Caplug (size 5X, Protective Closures Co., Inc., Buffalo, N.Y. 14207) and the tube counted directly as described by Dixon and Cohen, Clin. Chem, 22, 1746 (1976) in a modified liquid scintillation counter (Packard Tri-Carb, Model 3255, Packard Instrument Co., Ill. […]

The conditions of data set [4]: cited from earlier work.

Where “and” joins values, the source holds several entries; their conditions need not be identical. Equal values may be shown once. Where only a bound is given, the exact number is not on record here.

Turning to `Nc1ccc2c(c1)C(c1ccccc1Cl)=NCC(=O)N2` [7-Aminoclonazepam], the “% Cross-reaction” value in data set [1] is reported as 0.07%.
For `CN(C)CCC=C1c2ccccc2CCc2ccccc21` [Amitriptyline], in data set [1], the “interference (cross-reactivity in words)” value was “negligible interference” and the “% Cross-reaction” value is on record as under 0.01%. Further, in data set [1] (listed as amitriptyline), the “% Cross-reaction” value is on record as “less than 1%”.
Take `CNC1=Nc2ccc(Cl)cc2C(c2ccccc2)=[N+]([O-])C1` [Chlordiazepoxide]: the “% Cross-reaction” value is recorded as 0.2% in data set [1] and “less than 1%” in data set [1] (listed as chlordiazepoxide). The “cross-reaction with prior-art antibodies” value in data set [2] is reported as “cross-react strongly”.
On to `O=C1CN=C(c2ccccc2Cl)c2cc([N+](=O)[O-])ccc2N1` [Clonazepam], for which, in data set [1], the “interference (cross-reactivity in words)” value was “negligible interference” and the “% Cross-reaction” value amounted to 0.3%. In addition, the “% Cross-reaction” value in data set [1] (listed as clonazepam) is “less than 1%”.
Turning to `O=C(O)C1N=C(c2ccccc2)c2cc(Cl)ccc2NC1=O` (stereo not shown) [Clorazepate], the “% Cross-reaction” value is over 50% in data set [1] and “greater than 50%” in data set [1] (listed as clorazepate).
As to `O=C1C[N+]([O-])=C(c2ccccc2)c2cc(Cl)ccc2N1` [Demoxepam], the “% Cross-reaction” value in data set [1] is 0.6%; in data set [1] (listed as demoxepam), “less than 1%”.
Take `CN1C(=O)CN=C(c2ccccc2)c2cc(Cl)ccc21` [Diazepam]: the “% Cross-reaction” value in data set [1] is 0.6% and 0.5%; in data set [1] (listed as diazepam), “less than 1%”. In addition, the “cross-reaction with prior-art antibodies” value in data set [2] is given as “cross-react strongly”.
As for `O=C1CN=C(c2ccccc2)c2cc(Cl)ccc2N1` [N-desmethyldiazepam], in data set [1], the “% Cross-reaction” value was 100%. The “cross-reaction with prior-art antibodies” value in data set [2] is “cross-react strongly”. In addition, the “inhibition of binding of the radioligand to the antiserum” value in data set [3] (0.5 ng standard, plasma) is “greater than 10%”.
For the compound `CNCCC=C1c2ccccc2CCc2ccccc21` [Nortriptyline], the “% Cross-reaction” value in data set [1] was under 0.01%.
With `O=C1Nc2ccc(Cl)cc2C(c2ccccc2)=NC1O` (stereo not shown) [Oxazepam], in data set [1], the “% Cross-reaction” value is on record as 5.5%. In addition, in data set [2], the “cross-reaction with prior-art antibodies” value was “cross-react strongly”. Moreover, the “presence in plasma as metabolite of diazepam and clorazepate” value in data set [4] was “negligible quantities”.
Turning to ^3 H-N-desmethyldiazepam, the “added radioligand bound by antiserum” value in data set [3] (0.5 μl of antiserum, after second booster immunization) was “approximately 50%”.
